Results reported in US8409552B2, “Anthranillic acid amides and derivatives thereof as cosmetic and pharmaceutical active compounds” (Symrise AG, priority 2002, dated 2013).
Values after ≈ are worked out from the molar mass of the structure shown. Where two headings read alike, the source gives them in different places.

Columns and labels:
[1] = test system: mast cells; conditions: cited from earlier work
[2] = test system: Mast cells from the peritoneal tissue of rats; assay: Inhibition of substance P-induced release of histamine from mast cells; assay type: cell-based, rat; conditions: for IC50: positive control, read-out: concentration for 50% inhibition of substance P-induced release of histamine; for inhibition at 0.5 µg/mL / inhibition at 5 µg/mL / inhibition at 50 µg/mL: Rattus norvegicus, Mast cell, 2 min, substance P 10 μM, 37° C., based on histamine content of cells stimulated with substance P; for inhibition at 0.5 µg/mL: 0.5 ppm synthetic substance; for inhibition at 5 µg/mL: 5 ppm synthetic substance; for inhibition at 50 µg/mL: 50 ppm synthetic substance; for activity in inhibiting substance P-induced histamine release, in words: structure/activity considerations, Tables 1a/1b
Experimental: Stock solutions: avenanthramides 2 to 19 (structural formulae: see Table 1a) and dianthramides 20-29 (structural formulae: see Table 1b); concentration: 1% in ethanol; storage before use at 4° C.) Mast cells from the peritoneal tissue of rats were isolated by centrifuging on metrizamide and stimulated with substance P (10 μM). […] The synthetically prepared avenanthramides and dianthramides of the Formulae 2 to 29 (cf. […] Test system: The final test solutions were incubated for 2 minutes in the presence of substance P and of the reference substance (CaCl2) or of the particular sample to be tested (incubation temperature: 37° C.). Cells that had been incubated in the absence of substance P and reference or sample substance served as blank. The reaction solutions were first freed from cell constituents by centrifuging. The histamine present in the supernatant liquor was then converted to a derivative with OPT and the fluorescence of the solutions was determined photometrically (fluorometer Cytofluor 2350). […] The values for the various avenanthramides are given in Table 2 as % inhibition based on the histamine content of cells stimulated with substance P without the addition of inhibitors.

[3] = test system: rat mast cells; conditions: oral application, dose of 200 mg/kg; cited from earlier work
[4] = test system: mast cells; assay: Substance P-induced release of histamine from mast cells (Hachisuka et al.); assay type: cell-based; conditions: 10^−3 M converted with molecular weight 327
Source text: As Komatsu et al report, tranilast inhibits the antigen-(DNP ascaris; monoclonal IgE antibody with 2,4-dinitrophenyl-specificity) induced release of histamine from mast cells in the concentration range of 10^−3 to 10^−5 M. It was possible to achieve 50% inhibition of the histamine release at a concentration of approximately 10^−4 M. On the other hand, the influence of other anthranilic acid amides on the inhibition of the release of histamine from mast cells was not described in the publication. Hachisuka et al. (Arch. Dermatol. Res. Vol. 280, p. 158-162; 1988) investigated the influence of various active compounds on the inhibition of the substance P-induced release of histamine from mast cells. Here the activity of disodium chromogylcate (sic), ketotifen and tranilast was compared. […] Other anthranilic acid amides were not investigated in more detail within the framework of this research work either.
The comparatively low activity of tranilast agrees with the research carried out by Hachisuka et al. (Arch Dermatol Res Vol. 280, p. 158-162; 1988). […] Apparently, the alkylation of the vicinal hydroxyl groups in the cinnamic acid part or dihydrocinnamic acid part is accompanied by a significant reduction in activity.

[5] = test system: mast cells; conditions: cited from earlier work; remark: listed apart in the source

SMILES	inhibition at 0.5 µg/mL [2] [%]	inhibition at 5 µg/mL [2] [%]	inhibition at 50 µg/mL [2] [%]	further results
O=C([O-])c1cc(=O)c2c(OCC(O)COc3cccc4oc(C(=O)[O-])cc(=O)c34)cccc2o1.[Na+].[Na+] [DSCG, disodium cromoglycate]				inhibition of substance P-induced histamine release ([1]; at 10^−3 M): 41%
[Ca+2].[Cl-].[Cl-] [calcium chloride, reference compound]				IC50 ([2]; test series 3.1 (synthetic anthranilic acid amides)): 639 µM; IC50 ([2]; test series 3.2 (oat fraction vs reconstituted product)): 432 µM
O=C(/C=C/c1ccc(O)c(O)c1)Nc1ccccc1C(=O)O [compound 2]	7	80	108	activity in inhibiting substance P-induced histamine release, in words [2]: complete inhibition of the histamine release
O=C(/C=C/c1ccc(O)c(O)c1)Nc1ccc(O)cc1C(=O)O [compound 3]	11	62	106	activity in inhibiting substance P-induced histamine release, in words [2]: complete inhibition of the histamine release
COc1cc(/C=C/C(=O)Nc2ccc(O)cc2C(=O)O)ccc1O [compound 4]	3	49	59	
O=C(CCc1ccc(O)cc1)Nc1ccc(O)cc1C(=O)O [compound 5]	7	17	47	
O=C(/C=C/c1ccc(O)cc1)Nc1cc(O)ccc1C(=O)O [compound 6]	-9	1	41	
O=C(/C=C/c1ccc(O)cc1)Nc1ccc(O)cc1C(=O)O [compound 7]	27	26	40	
O=C(CCc1ccc(O)cc1)Nc1ccccc1C(=O)O [compound 8]	13	26	40	
COc1cc(/C=C/C(=O)Nc2ccccc2C(=O)O)ccc1O [compound 9]	11	19	39	
O=C(/C=C/c1ccc(O)cc1)Nc1ccccc1C(=O)O [compound 10]	-10	8	37	
COc1ccc(CCC(=O)Nc2ccc(O)cc2C(=O)O)cc1OC [compound 11]	-6	11	36	
O=C(/C=C/c1ccccc1)Nc1ccc(O)cc1C(=O)O [compound 12]	-5	0	34	
COc1ccc(/C=C/C(=O)Nc2ccc(O)cc2C(=O)O)cc1OC [compound 13]	17	2	30	
COc1ccc(/C=C/C(=O)Nc2ccccc2C(=O)O)cc1 [compound 14]	21	30	24	
COc1ccc(/C=C/C(=O)Nc2ccccc2C(=O)O)cc1OC [compound 15]	23	22		

SMILES	inhibition at 0.5 µg/mL [2] [%]	inhibition at 5 µg/mL [2] [%]	inhibition at 50 µg/mL [2] [%]	further results
COC(=O)c1ccccc1NC(=O)CCc1ccc(OC)c(OC)c1 [compound 16]	26	25	7	
O=C(/C=C/c1ccccc1)Nc1ccccc1C(=O)O [compound 17]	4	7	6	
COC(=O)c1ccccc1NC(=O)/C=C/c1ccc(OC)c(OC)c1 [compound 18]	5	-3	6	
COc1ccc(CCC(=O)Nc2ccccc2C(=O)O)cc1OC [compound 19]	-15	-22	-4	
O=C(Nc1ccccc1C(=O)O)c1ccc(O)c(O)c1 [compound 20, 2-[(3,4-dihydroxybenzoyl)amino]benzoic acid]	14	76	110	activity in inhibiting substance P-induced histamine release, in words [2]: greatest activity
O=C(Nc1ccc(O)cc1C(=O)O)c1ccc(O)cc1 [compound 21]	-15	48	76	
O=C(Nc1ccccc1C(=O)O)c1cc(O)c(O)c(O)c1 [compound 22, 2-[(3,4,5-trihydroxy-benzoyl)amino]benzoic acid]	39	72	71	
COc1ccc(C(=O)Nc2ccccc2C(=O)O)cc1O [compound 23, 2-[(3-hydroxy-4-methoxybenzoyl)amino]-benzoic acid]	9	29	69	
O=C(Nc1ccccc1C(=O)O)c1ccc(O)cc1 [compound 24, 2-[(4-hydroxy-benzoyl)amino]benzoic acid]	7	19	55	
COc1cc(C(=O)Nc2ccccc2C(=O)O)ccc1O [compound 25, 2-[(4-hydroxy-3-methoxybenzoyl)amino]-benzoic acid]	8	42	51	
O=C(Nc1ccccc1C(=O)O)c1ccc(O)cc1O [compound 26]	-13	22	48	
O=C(Nc1ccccc1C(=O)O)c1ccccc1 [compound 27]	27	28	39	
O=C(Nc1ccccc1C(=O)O)c1cccc(O)c1 [compound 28, 2-[(3-hydroxy-benzoyl)amino]benzoic acid]	12	25	35	
O=C(Nc1ccccc1C(=O)O)c1ccccc1O [compound 29]	-1	15	23	
O=C(/C=C/c1ccc(O)cc1)Nc1ccccc1C(=O)O [substance 10, N-(4-hydroxycinnamoyl)anthranilic Acid]				inhibition of antigen-induced destruction of rat mast cells [3]: 36.7%
COc1ccc(/C=C/C(=O)Nc2ccccc2C(=O)O)cc1OC [substance 15, N-(3,4-dimethoxy-cinnamoyl)anthranilic acid]			21	concentration for 50% inhibition of the substance P-induced histamine release [4]: 327 ppm; IC50 ([4]; Mast cell, read-out: concentration for 50% inhibition of the substance P-induced histamine release): 327 µg/mL (≈ 999 µM); concentration range inhibiting antigen-induced release of histamine ([5]; DNP ascaris, monoclonal IgE antibody with 2,4-dinitrophenyl-specificity): 10^−3 to 10^−5 M; IC50 ([5]; antigen-induced (DNP ascaris), read-out: concentration for 50% inhibition of the histamine release): ~100 µM; IC50 ([1]; Hachisuka et al. 1988, read-out: concentration for 50% inhibition of the substance P-induced histamine release): ~1000 µM; inhibition of antigen-induced destruction of rat mast cells [3]: 46.1%
